Assay results reported in patent US5824657A, “Aminoacyl sulfamides for the treatment of hyperproliferative disorders” (priority 1997, dated 1998).
Like-named read-outs stand apart in the source and are kept apart here.

What was measured:
[1] = system: human epidermoid carcinoma cell line A-253 (ATCC HTB 41); assay: MTT assay, human epidermoid carcinoma cell line; assay type: cell-based; conditions: read-out: IC50 Human Epidermoid Carcinoma Cells ATCC # HTB 41
Description: The MTT assay was used as a model to measure the inhibitory effects of the compounds of Formula I. The MTT assay is considered the most convenient modern assay for the determination of cell viability and cell proliferation. An MTT assay kit is commercially available (Chemicon International Inc., Temecula, Calif.). The MTT assay was performed according to manufacturer's instructions as outlined below.
A human epidermoid carcinoma cell line, designated as A-253 (ATCC HTB 41), was obtained in frozen vials from the American Type Culture Collection, Rockville, Md. Monolayer cultures were established from the vials by growth in RPMI 1640 medium supplemented with 10% fetal bovine serum (heat-inactivated), 2 mM L-glutamine, and pen-strep (100 units/ml; 100 μg/ml). The cultures were incubated at 37±1.5° C. in 5±1% CO2 in humidified air and were passaged weekly to avoid overgrowth. The laboratory cultures used for the present study were at passage seven after receipt of frozen stocks from ATCC.
Compounds of Formula I in powder form were stored at room temperature in plastic micro centrifuge tubes. Each tube was placed in a plastic bag containing desiccant. Each test compound was prepared as a 2 mg/ml solution in RPMI 1640 medium (non-supplemented) on the day of use, and the appropriate dilutions were prepared with the same vehicle.
Each compound was handled by sterile techniques in Class II, Type B biological safety cabinets.
The reference control compound was methotrexate at concentrations of 0.5 μg/ml to 50 μg/ml. A 1 mg/ml stock was prepared on the day of dosing and diluted to the appropriate concentrations using RPMI 1640 medium (non-supplemented).
A blank control was included in the MTT assay in order to determine the absorbance associated with the absence of any cells. This control was RPMI 1640 culture medium carried through the same procedures used to culture the cells in the microwell plates and to conduct the MTT assay color development. The microwell plate reader was zeroed against the blank control prior to recording the absorbance in the test wells.
Laboratory monolayer cultures of A-253 cells were trypsinized and seeded at a concentration of 24,000 cells in 0.05 ml of complete RPMI 1640 culture medium per well in 96-well plates. Eight wells in a column were seeded for each test condition. The blank control was prepared by adding 0.05 ml of culture medium (no cells) to 8 wells in the first column of each plate. A separate microwell plate was used for each compound of Formula I.
The test compound treatments were initiated immediately after seeding the cells by adding 0.05 ml of treatment medium to each microwell. Ten different test compound concentrations were prepared in culture medium (without serum), and each concentration was applied to a volume of eight wells on the appropriate plate. The final concentrations in the wells were 1000, 500, 250, 100, 50, 25, 10, 5, 2.5, and 1 μg/ml.
An untreated (zero-dose) condition was included as a column of 8 wells on each plate. The zero-dose and blank control wells received 0.05 ml of culture medium (without serum). The microwell plates were placed in an incubator at 37±1.5° C. in 5% CO2 in humidified air for an exposure period of 72±0.5 hours.
After the exposure period, 0.1 ml of MTT dye solution (0.5 mg/ml in serum free RPMI 1640 medium) was added to each micowell. The cultures were returned to the incubator for 2±0.1 hours. Then the medium was removed from each well and placed into a clean microwell plate for temporary storage. A volume of 0.1 ml of color development solution (Solution C, isopropanol with 0.04M HCl, Chemicon MTT Assay kit, Chemicon International Inc., Temecula, Calif.) was added to each new microwell. The contents were carefully mixed and allowed to sit at room temperature for approximately 1 hour. The medium that was saved from each microwell then was pipetted back into the well from which it originally came. […]

[2] = system: aminoacyl-tRNA synthetases (aaRS) isolated from HeLa cells; assay: IC50 determination, aaRS charging and trichloroacetic acid precipitation assay, aaRS partially purified from HeLa cell extracts; assay type: biochemical; conditions: preincubation 20 minutes at 25° C., reaction 5-20 minutes
Description: IC50 determinations for the aminoacyl-tRNA synthetases (aaRS) isolated from HeLa cells were carried out using a modification of the aaRS charging and trichloroacetic acid precipitation assay described previously (see examples: D. Kern et. al., Biochemie, 61, 1257-1272 (1979) and J. Gilbart et. al. Antimicrobial Agents and Chemotherapy, 37(1), 32-38 (1993)). […] For practical purposes, the minimal acceptable value is approximately 2000 cpm per 10 minute reaction. The final dilution of the HeLa extract in the assays for the aaRS enzymes varies from 50 to 1200-fold.
Test compounds were typically present as serial dilutions in concentrations ranging from 0.35 nM to 35 μM. Test compound solutions were prepared by dissolving test compounds in 100% dimethyl sulfoxide and diluting to the final concentration with 50 mM HEPES, pH 7.5. IC50 determinations were typically performed in duplicate with each experiment containing 4-8 concentrations of test compound and with duplicate controls containing no inhibitor.
The reaction was incubated at 25° C. for 5-20 minutes. At specified time points a 15 microliter aliquot was removed and added to a well of a Millipore filtration plate (Multiscreen-FB, MAFB NOB 10) containing 100 microliters of cold 5% (wt/vol) trichloroacetic acid. Trichloroacitic acid precipitable material was collected by filtration on a Millipore Multiscreen filtration station, washed twice with cold 5% trichloroacetic acid, twice with water, and dried. Plates were typically allowed to air dry for several hours or baked at 50° C. in a vacuum oven for 30 minutes. The radioactivity on the dried plates was quantitated by the addition of Packard Microscint-20 to the wells and counting with a Packard TopCount scintillation counter.
Inhibitor activity typically was reported as a percentage of the control aaRS activity. […] The IC50 (in nM, Hela Cells) values of representative compounds of the present invention are listed in column 5 of Table I.

[3] = system: normal human skin fibroblasts cell line ATCC CRL 1501; assay: MTT assay, normal skin fibroblasts; assay type: cell-based; conditions: Skin fibroblast, similar manner to HTB 41 assay
Description: The MTT assay was used as a model to measure the inhibitory effects of the compounds of Formula I. The MTT assay is considered the most convenient modern assay for the determination of cell viability and cell proliferation. […] The MTT assay was performed according to manufacturer's instructions as outlined below.
The cultures were returned to the incubator for 2±0.1 hours. Then the medium was removed from each well and placed into a clean microwell plate for temporary storage. A volume of 0.1 ml of color development solution (Solution C, isopropanol with 0.04M HCl, Chemicon MTT Assay kit, Chemicon International Inc., Temecula, Calif.) was added to each new microwell. […] The absorbance at 540 nm wavelength was determined in a microwell plate reader within two hours of the final preparation of the plates.
The absorbance at 540 nm was recorded for each well by the microwell plate reader after the instrument was zeroed against the blank controls for each plate. The mean absorbance for each test condition was calculated and compared to the mean absorbance for the zero-dose wells in order to obtain percent values. […]

[4] = system: isoleucyl-tRNA synthetase; conditions: cited from earlier work
[5] = system: Gram positive bacterial pathogens such as Staphylococcus aureus; conditions: cited from earlier work
[6] = A253, MTT assay, exposure 72 hours, plot extended by eye for compounds active at lowest dose

Row | IC50 [1, 6] [nM] | IC50 [2] [nM] | Compound | also measured
1 | 900 | 1 | Nc1ncnc2c1ncn2[C@@H]1O[C@H](CNS(=O)(=O)NC(=O)[C@@H]2CCCN2)[C@@H](O)[C@H]1O [XV] | –
2 | 1370 | 0.5 | CC(C)C[C@H](N)C(=O)NS(=O)(=O)NC[C@H]1O[C@@H](n2cnc3c(N)ncnc32)[C@H](O)[C@@H]1O [III] | IC50 [3]: 13000 nM
3 | 3990 | 14 | N=C(N)NCCC[C@H](N)C(=O)NS(=O)(=O)NC[C@H]1O[C@@H](n2cnc3c(N)ncnc32)[C@H](O)[C@@H]1O [XVII] | –
4 | 1440 | 22 | C[C@H](N)C(=O)NS(=O)(=O)NC[C@H]1O[C@@H](n2cnc3c(N)ncnc32)[C@H](O)[C@@H]1O [VII] | –
5 | 790 | 17 | Nc1ncnc2c1ncn2[C@@H]1O[C@H](CNS(=O)(=O)NC(=O)[C@@H](N)Cc2ccc(O)cc2)[C@@H](O)[C@H]1O [V] | –
6 | 3050 | 0.9 | CC[C@H](C)[C@H](N)C(=O)NS(=O)(=O)NC[C@H]1O[C@@H](n2cnc3c(N)ncnc32)[C@H](O)[C@@H]1O [I] | –
7 | 4950 | 27 | CC(C)[C@H](N)C(=O)NS(=O)(=O)NC[C@H]1O[C@@H](n2cnc3c(N)ncnc32)[C@H](O)[C@@H]1O [II] | –
8 | 5000 | 174 | Nc1ncnc2c1ncn2[C@@H]1O[C@H](CNS(=O)(=O)NC(=O)[C@@H](N)CC(=O)O)[C@@H](O)[C@H]1O [VIII] | –
9 | 9630 | 40 | C[C@@H](O)[C@H](N)C(=O)NS(=O)(=O)NC[C@H]1O[C@@H](n2cnc3c(N)ncnc32)[C@H](O)[C@@H]1O [XVIII] | –
10 | 2530 | 8 | NCCCC[C@H](N)C(=O)NS(=O)(=O)NC[C@H]1O[C@@H](n2cnc3c(N)ncnc32)[C@H](O)[C@@H]1O [Compound XI] | –
11 | – | – | CN(Cc1cnc2nc(N)nc(N)c2n1)c1ccc(C(=O)N[C@@H](CCC(=O)O)C(=O)O)cc1 [Methotrexate, reference compound] | IC50 ([1]; A253, 72 h): 40 nM
12 | 530 | 300 | Nc1ncnc2c1ncn2[C@@H]1O[C@H](CNS(=O)(=O)NC(=O)[C@@H](N)Cc2c[nH]c3ccccc23)[C@@H](O)[C@H]1O [Compound X, 5'-deoxy-adenosine 5'-N-(N-L-tryptophanyl)sulfamide] | IC50 [3]: 80 nM
13 | 2690 | 2 | Nc1ncnc2c1ncn2[C@@H]1O[C@H](CNS(=O)(=O)NC(=O)[C@@H](N)Cc2c[nH]cn2)[C@@H](O)[C@H]1O [XIII] | –
14 | – | – | CC(=CC(=O)OCCCCCCCCC(=O)O)CC1OCC(CC2OC2C(C)C(C)O)C(O)C1O (stereo not drawn) [Pseudomonic acid A] | inhibition of isoleucyl adenylate formation [4]: inhibits isoleucyl adenylate formation; inhibition of protein synthesis and growth [5]: inhibition of protein synthesis, followed by growth inhibition
15 | 10500 | – | Nc1ncnc2c1ncn2[C@@H]1O[C@H](CNS(=O)(=O)NC(=O)[C@@H](N)CCC(=O)O)[C@@H](O)[C@H]1O [XII] | –
16 | 3590 | 400 | NC(=O)CC[C@H](N)C(=O)NS(=O)(=O)NC[C@H]1O[C@@H](n2cnc3c(N)ncnc32)[C@H](O)[C@@H]1O [XVI] | –
17 | 1050 | 3 | CSCC[C@H](N)C(=O)NS(=O)(=O)NC[C@H]1O[C@@H](n2cnc3c(N)ncnc32)[C@H](O)[C@@H]1O [IV] | –
18 | – | – | CC1=C(/C=C/C(C)=C/C=C/C(C)=C/C(=O)O)C(C)(C)CCC1 [Retinoic acid, reference compound] | IC50 ([1]; A253, 72 h): 266000 nM
19 | 1490 | 50 | NCC(=O)NS(=O)(=O)NC[C@H]1O[C@@H](n2cnc3c(N)ncnc32)[C@H](O)[C@@H]1O [IX] | –
20 | 9250 | 140 | Nc1ncnc2c1ncn2[C@@H]1O[C@H](CNS(=O)(=O)NC(=O)[C@@H](N)CO)[C@@H](O)[C@H]1O [VI, 5'-deoxy-adenosine 5'-N-(N-L-seryl)sulfamide] | –
